Results from ChEMBL document CHEMBL3046074, “SnO2 nanoparticles mediated nontraditional synthesis of biologically active 9-chloro-6,13-dihydro-7-phenyl-5H-indolo [3,2-c]-acridine derivatives” (Med Chem Res, 2011).
Values after ≈ are worked out from the molar mass of the structure shown.

Assays:
Assay type in all cases: functional, cell-based
[1] = test system: Vero; experiment: Cytotoxicity against Chlorocebus aethiops (African green monkey) Vero cells by MTT assay; conditions: Chlorocebus sabaeus
[2] = test system: Erythrocyte; experiment: Hemolytic activity in Homo sapiens (human) Erythrocyte after 30 min; conditions: 0.5 h
[3] = test system: HeLa; experiment: Cytotoxicity against Homo sapiens (human) HeLa cells by MTT assay

| Compound | IC50 [1] | EC50 [2] | IC50 [3] |
| --- | --- | --- | --- |
| Cc1ccc2c3c([nH]c2c1)-c1nc2ccc(Cl)cc2c(-c2ccccc2)c1CC3 | > 100 µg/mL | 409 µg/mL (≈ 1030 µM) | > 100 µg/mL |
| CC[C@@]1(O)C(=O)OCc2c1cc1n(c2=O)Cc2cc3ccccc3nc2-1 [CAMPTOTHECIN] | 58 µg/mL (≈ 166 µM) | 430 µg/mL (≈ 1230 µM) | 0.28 µg/mL (≈ 0.804 µM) |
| Cc1ccc2[nH]c3c(c2c1)CCc1c-3nc2ccc(Cl)cc2c1-c1ccccc1 | > 100 µg/mL | 212 µg/mL (≈ 537 µM) | > 100 µg/mL |
| Cc1cccc2c3c([nH]c12)-c1nc2ccc(Cl)cc2c(-c2ccccc2)c1CC3 | > 100 µg/mL | 458 µg/mL (≈ 1160 µM) | > 100 µg/mL |
